Assay results: patent publication US10351501B2, “Gem difluorocompounds as depigmenting or lightening agents” (TFCHEM, priority 2015, dated 2019)
pIC50: −log10 of the molar value. Like-named read-outs stand apart in the source and are kept apart here.

Experiments:
[1] = Antioxidant activity by the spectrophotometric method of the free radical DPPH•
Description: The aim of the study was to evaluate the antioxidant activity of compound 11 by the spectrophotometric method of the free radical DPPH• (2,2-diphenyl-1-picrylhydrazyl). Indeed, antioxidants react with DPPH^• (purple), a stable free radical which is reduced to DPPH-H (yellow), and in consequence, the absorbance is decreased from the DPPH^• radical to the DPPH-H form. The degree of discoloration indicates the scavenging potential of the antioxidant compounds in terms of hydrogen donating ability (Popovici et al. Revue de génie industriel 2009, 4, 25-39).
The tested compounds were: Trolox ((±)-6-hydroxy-2,5,7,8-tetramethylchromane-2-carboxylic acid, Sigma Aldrich), as reference, and compound 11.
A stock solution of DPPH• was prepared at 200 μmol/mL in methanol and diluted in methanol in order to have a final concentration of around 150 μmol/mL to obtain a DO close to 0.9 in a plate of 96 wells. The antioxidant stock solutions were prepared at 1 mg/mL in methanol and the tested solutions were prepared from these antioxidant stock solutions as described in Table 7 below.
50 μL of each solution of antioxidant was added to the wells. Then, 200 μL of DPPH^• was added to each well.
The blank was prepared with only 250 μl of methanol and the negative control was prepared with 200 μL DPPH• and 50 μL of methanol.
The analysis was started immediately after the addition of DPPH• lasting for 2 hours (readings every 20 seconds). The absorbance was read at 515 nm. Each experiment was performed three times and had shown that the absorbance decreases while the concentration of antioxidant increased.
The activity of DPPH• is a percentage calculated as the ratio of A/An×100%.
The EC50 is expressed as a molar ratio of antioxidant (compound 11)/DPPH• (Popovici et al. Revue de génie industriel 2009, 4, 25-39). The EC50 was determined from the graph representing the percentage of DPPH• in function of the above mentioned molar ratio (moles of compound 11/moles of DPPH•).
The antioxidant activity of compound 11 was compared to that of Trolox used as a reference (considered as 100%).

[2] = biological target: T1, human recombinant tyrosinase (Homo sapiens, UniProt P14679); assay: Inhibition of human tyrosinase in tubo (L-DOPA substrate, OD at 477 nm), IC50; type: biochemical
T1 sequence (P14679 19-529): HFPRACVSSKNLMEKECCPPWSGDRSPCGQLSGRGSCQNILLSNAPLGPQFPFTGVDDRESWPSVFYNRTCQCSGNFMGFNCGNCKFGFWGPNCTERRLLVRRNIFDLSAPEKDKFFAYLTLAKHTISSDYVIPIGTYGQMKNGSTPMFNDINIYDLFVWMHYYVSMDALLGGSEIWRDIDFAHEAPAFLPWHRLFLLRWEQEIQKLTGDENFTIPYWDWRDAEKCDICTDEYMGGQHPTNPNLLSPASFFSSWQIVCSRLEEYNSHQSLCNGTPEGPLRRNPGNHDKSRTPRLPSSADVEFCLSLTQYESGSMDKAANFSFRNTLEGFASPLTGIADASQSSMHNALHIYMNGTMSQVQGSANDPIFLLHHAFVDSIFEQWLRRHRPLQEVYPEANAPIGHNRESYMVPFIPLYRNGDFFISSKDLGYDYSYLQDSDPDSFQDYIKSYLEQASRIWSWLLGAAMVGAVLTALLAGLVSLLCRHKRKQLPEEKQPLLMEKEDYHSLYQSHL
Experimental: Substrate solution: L-DOPA (1 mg/mL) Solution B (L-DOPA 20 mg/Purified water up to 20 mL)
Preparation of Test Solutions (for IC50 Test—Examples for Deoxyarbutin)
Inhibitors solutions deoxyarbutin (1 mg/mL): Deoxyarbutin 20 mg in purified water up to 20 mL
This assay used a 96-well plate. Test solutions and controls were made several times.
The results were calculated from the OD measured at time point 20 min.
The determination of half maximal inhibitory concentration (IC50) was performed using the following formula.

[3] = In vitro human skin absorption, Franz diffusion cell: quantification in the receptor fluid (flux); type: in vitro ADME; conditions: human, 2 mg/ml
Description: The aim of this study was to evaluate the absorption of compound 11 applied to excised human skin.
In vitro method using a Franz diffusion cell allows measuring the diffusion of chemicals into and across skin.
The tested compound is applied to the surface of a human skin explant separating the two chambers of a Franz diffusion cell. The compound remains on the skin for a specified time under specified conditions. The receptor fluid is sampled at time points throughout the experiment and analyzed for the tested compound. The skin may also be fractioned for separate analysis in epidermis or dermis layers.
The transcutaneous absorption was measured on human skin collected from the abdominoplasty of a single donor. At reception, the skin was defatted and cut in several fragments in order to perform Franz experiment. […]
The tested compounds were quantified, at T0 h and T24 h in the receptor solution bathing the inner surface of the skin (determination of flux), or at T24 h in the fractionated skin extracts (epidermis or dermis). […]
Sampling: 500 μL from the receptor fluid were removed at T0 h (replaced by Ringer solution) and at T24 h. These samples were analyzed by LC-MS/MS method for quantification of compound 11 and deoxyarbutin (results not shown). The quantity measured allowed to calculate a flux and to compare the absorption profile across the skin of compound 11 and deoxyarbutin.

SMILES: Oc1ccc(OC2CCCCC2(F)F)cc1 (racemic) [Compound 11]
- A at 515 nm (T = 30 min) ([1]; Solution 1 (0.05 mg/mL in methanol)): 0.505
- A at 515 nm (T = 30 min) ([1]; Solution 2 (0.10 mg/mL in methanol)): 0.373
- A at 515 nm (T = 30 min) ([1]; Solution 3 (0.15 mg/mL in methanol)): 0.234
- A at 515 nm (T = 30 min) ([1]; Solution 4 (0.2 mg/mL in methanol)): 0.233
- antioxidant (free radical scavenger) efficacy compared to that of Trolox ([1]; Trolox considered as 100%): 31.1%
- EC50 (Ratio antioxidant/DPPH•) Mean ([1]; molar ratio antioxidant/DPPH•, absorbance at T = 30 min): 0.772
- IC50 ([2]; Tyrosinase Concentration 300 U/mL, mean of 4 tests, read-out: Calculated IC50 Mean (converted)): 35.1 µM
- pIC50 ([2]; Tyrosinase Concentration 300 U/mL, read-out: IC50): 4.46
- IC50 ([2]; Tyrosinase Concentration 300 U/mL, time 20 min, read-out: Calculated IC50 Test #1 (converted)): 35.1 µM
- IC50 ([2]; Tyrosinase Concentration 300 U/mL, time 20 min, read-out: Calculated IC50 Test #2 (converted)): 35.1 µM
- IC50 ([2]; Tyrosinase Concentration 300 U/mL, time 20 min, read-out: Calculated IC50 Test #3 (converted)): 35.1 µM
- IC50 ([2]; Tyrosinase Concentration 300 U/mL, time 20 min, read-out: Calculated IC50 Test #4 (converted)): 35.1 µM
- inhibits the human recombinant tyrosinase, times more than the Deoxyarbutin ([2]; comparison of IC50): 7-8 times
- Flux, mean (n = 3) [3]: 2.71 μg/h/cm^2
